Patent publication US20150313927A1, “AN EDIBLE COMPOSITION COMPRISING RESVERATROL AND FLAVONOID MONOGLUCOSIDE” (Conopco, Inc., d/b/a UNILEVER, priority 2012, published 2015)
Where “and” joins values, the source holds several entries; their conditions need not be identical. Equal entries are not always repeated.

Key:
[1] = target: T1, Human Lactase Phloridzin Hydrolase (hLPH) (Homo sapiens, UniProt P09848); test: hLPH enzyme assay (glucoside hydrolysis by LPH extract); type: in vitro ADME; conditions: for μM substrate hydrolysed/hr: glucoside 1.0 mM, 10% LPH extract (Caco2), 1 hour, 37° C., pH 6.0; for Resistance to hydrolysis - % Q4G: resistance to LPH hydrolysis relative to quercetin-4-glucoside (Q4G)
T1 construct: at confluence for 21 days prior to extraction with a Novagen ProteoExtract™ trans-membrane Protein Extraction kit; endogenous in cells; host or cells: Caco-2 cells (ATCC), 21 days at confluence; membrane protein extract desalted over G-25 Sephadex
T1 sequence (P09848 869-1927): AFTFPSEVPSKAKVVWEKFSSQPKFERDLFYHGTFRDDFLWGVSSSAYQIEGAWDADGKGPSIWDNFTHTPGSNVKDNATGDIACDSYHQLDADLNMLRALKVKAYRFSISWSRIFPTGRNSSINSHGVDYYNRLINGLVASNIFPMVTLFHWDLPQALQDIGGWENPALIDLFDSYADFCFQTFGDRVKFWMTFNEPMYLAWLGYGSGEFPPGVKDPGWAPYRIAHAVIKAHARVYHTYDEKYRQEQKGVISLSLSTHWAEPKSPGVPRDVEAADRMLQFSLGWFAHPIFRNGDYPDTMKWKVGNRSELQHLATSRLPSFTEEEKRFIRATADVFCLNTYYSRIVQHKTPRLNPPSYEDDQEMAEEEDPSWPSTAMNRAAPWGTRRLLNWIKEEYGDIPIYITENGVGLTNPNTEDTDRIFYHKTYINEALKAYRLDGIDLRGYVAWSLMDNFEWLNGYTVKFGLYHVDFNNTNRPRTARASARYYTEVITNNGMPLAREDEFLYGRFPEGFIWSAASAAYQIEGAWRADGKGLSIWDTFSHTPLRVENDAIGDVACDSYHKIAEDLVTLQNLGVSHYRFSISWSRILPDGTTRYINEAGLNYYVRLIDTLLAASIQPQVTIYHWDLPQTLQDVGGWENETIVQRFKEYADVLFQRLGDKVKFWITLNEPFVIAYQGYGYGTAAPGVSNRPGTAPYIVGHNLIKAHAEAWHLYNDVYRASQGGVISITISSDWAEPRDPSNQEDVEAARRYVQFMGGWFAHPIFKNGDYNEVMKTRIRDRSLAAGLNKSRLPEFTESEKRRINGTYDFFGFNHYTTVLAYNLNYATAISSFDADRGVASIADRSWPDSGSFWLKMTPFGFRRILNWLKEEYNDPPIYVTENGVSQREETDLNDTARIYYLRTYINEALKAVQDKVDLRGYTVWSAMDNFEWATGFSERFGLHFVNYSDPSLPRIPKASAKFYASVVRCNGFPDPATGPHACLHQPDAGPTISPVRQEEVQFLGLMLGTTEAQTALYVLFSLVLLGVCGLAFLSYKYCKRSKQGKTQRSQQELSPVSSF
Description: Extracts were stored at −80° C. in 50 ul aliquots. Prior to use extracts were semi-purified, removing low molecular weight interfering components by passing through a small G-25 Sephadex 50-100 μl spin-column (Roche or ThermoFisher Scientific). 10 μl of semi-purified LPH extract was added to 90 μl of glucoside (1.0 mM final concentration) in 0.1 M maleate (Sigma) buffer, pH 6.0 and incubated for 60 minutes at 37° C. The reaction was terminated by addition of 200 μl 2M Tris (Sigma), pH 8.0. […] This allowed a full recovery of glucose which was measured using the Amplex® Red Glucose/Glucose Oxidase Assay. […] Fluorescence was read on a SpectraMax Gemini EM SN plate reader (Molecular Devices) (excitation. 530 nm and emission at 590 nm).

[2] = tested on: differentiated Caco-2 monolayers; test: Glucose transport cell model, total cumulative glucose transport (synergy); type: cell-based, Human; conditions: active only in 25 mM D-glucose for remaining 45 minutes (NC Pz 300 μM, NC R 75 μM)
GLUT2 = target: T2, GLUT2 (Homo sapiens, UniProt P11168); test: Glucose transport inhibitor cell screening assay, 25 mM D-glucose for 30 minutes; conditions: for inhibition at 25000 µM: Caco-2, read-out: % Glucose Transport inhibition 25 mM; for % Glucose Transport inhibition 25 mM / GLUT2 inhibition (in words): 25 mM D-glucose; for % Glucose Transport inhibition 25 mM: 30 minutes, actives at 150 uM, differentiated Caco-2 monolayer; for GLUT2 inhibition (in words): Caco-2 cell model
T2 sequence (P11168 1-524): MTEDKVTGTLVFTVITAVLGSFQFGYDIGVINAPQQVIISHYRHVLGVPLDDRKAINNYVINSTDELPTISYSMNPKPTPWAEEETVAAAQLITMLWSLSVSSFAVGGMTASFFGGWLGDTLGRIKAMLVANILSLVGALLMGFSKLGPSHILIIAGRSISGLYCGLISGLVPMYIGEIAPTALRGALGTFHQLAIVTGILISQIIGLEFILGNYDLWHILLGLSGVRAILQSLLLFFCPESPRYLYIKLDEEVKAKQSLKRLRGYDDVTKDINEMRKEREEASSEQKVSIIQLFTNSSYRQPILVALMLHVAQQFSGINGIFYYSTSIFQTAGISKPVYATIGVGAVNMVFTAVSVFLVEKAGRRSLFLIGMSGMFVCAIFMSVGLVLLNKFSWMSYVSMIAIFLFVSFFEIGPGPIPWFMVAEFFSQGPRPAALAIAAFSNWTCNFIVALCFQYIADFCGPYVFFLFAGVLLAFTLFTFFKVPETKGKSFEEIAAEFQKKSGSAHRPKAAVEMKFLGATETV

SGLT1 = test: Glucose transport inhibitor cell screening assay, 5 mM D-glucose for 15 minutes; conditions: for % Glucose Transport inhibition 5 mM / SGLT1 inhibitory activity (in words): 5 mM D-glucose; for % Glucose Transport inhibition 5 mM: 15 minutes, actives at 300 uM, differentiated Caco-2 monolayer; for SGLT1 inhibitory activity (in words): Caco-2 cell model; for Class (assigned class of transporter inhibited): based on inhibition at 5 mM and 25 mM D-glucose

## O=C(CCc1ccc(O)cc1)c1c(O)cc(O)cc1O[C@@H]1O[C@H](CO)[C@@H](O)[C@H](O)[C@H]1O [Phloridzin, reference compound]
[1]
  μM substrate hydrolysed/hr: 0.507 μM substrate hydrolysed/hr
  Resistance to hydrolysis - % Q4G: at least 20%
[1]; listed as PLZ
  Resistance to hydrolysis - % Q4G: 83.64%
[2]
  total Cumulative Glucose Transport (tCGT), active added later with high D-glucose: no inhibition
GLUT2
  inhibition at 25000 µM: 18.4%

## COc1cc(/C=C/c2ccc(O)cc2)cc(OC)c1 [Pterostilbene]
GLUT2
  inhibition at 25000 µM: 8.26%
SGLT1
  % Glucose Transport inhibition 5 mM: 18.44%

## O=c1c(O)c(-c2ccc(O)cc2)oc2cc(O[C@@H]3O[C@H](CO)[C@@H](O)[C@H](O)[C@H]3O)cc(O)c12 [Kaempferol 7-O-glucoside]
[1]
  μM substrate hydrolysed/hr: 0.618 μM substrate hydrolysed/hr
[1]; listed as K7G
  Resistance to hydrolysis - % Q4G: 80.05%
GLUT2
  % Glucose Transport inhibition 25 mM: 14.42%
SGLT1
  % Glucose Transport inhibition 5 mM: 43.89%
  SGLT1 inhibitory activity (in words): inhibition of SGLT1
  Class (assigned class of transporter inhibited): SGLT1

## O=c1cc(-c2ccc(O)cc2)oc2c([C@@H]3O[C@H](CO)[C@@H](O)[C@H](O)[C@H]3O)c(O)cc(O)c12 [Apigenin-8-C-glucoside]
[1]
  μM substrate hydrolysed/hr: 0.685 μM substrate hydrolysed/hr
[1]; listed as A8G
  Resistance to hydrolysis - % Q4G: 77.90%
GLUT2
  % Glucose Transport inhibition 25 mM: 5.76%
SGLT1
  % Glucose Transport inhibition 5 mM: 33.84%
  SGLT1 inhibitory activity (in words): inhibition of SGLT1
  Class (assigned class of transporter inhibited): SGLT1

## OC[C@H]1O[C@@H](Oc2cc3c(O)cc(O)cc3[o+]c2-c2ccc(O)cc2)[C@H](O)[C@@H](O)[C@@H]1O [Pelargonidin-3-glucoside]
[1]; listed as P3G
  Resistance to hydrolysis - % Q4G: 58.94%

## OC[C@H]1O[C@@H](Oc2ccc(O)cc2)[C@H](O)[C@@H](O)[C@@H]1O [arbutin]
SGLT1
  SGLT1 inhibitory activity (in words): lack of SGLT1 inhibitory activity

## Oc1cc(O)cc(/C=C/c2ccc(O)c(O)c2)c1 [Piceatannol]
GLUT2
  inhibition at 25000 µM: 32.7%
SGLT1
  % Glucose Transport inhibition 5 mM: 89.28%
  Class (assigned class of transporter inhibited): GLUT2 (GLUT2 having >20% inhibition at both 5 mM & 25 mM)

## O=C(/C=C/c1ccc(O)c(O)c1)O[C@H](Cc1ccc(O)c(O)c1)C(=O)O [rosmarinic acid]
GLUT2
  GLUT2 inhibition (in words): no inhibitory activity
SGLT1
  SGLT1 inhibitory activity (in words): no inhibitory activity

## O=c1c(-c2ccc(O)cc2)coc2c([C@@H]3O[C@H](CO)[C@@H](O)[C@H](O)[C@H]3O)c(O)ccc12 [Daidzein-8-C-glucoside]
[1]; listed as D8G
  Resistance to hydrolysis - % Q4G: 82.19%

## Oc1ccc(C=Cc2cc(O)cc(O)c2)cc1 [Resveratrol]
[2]
  total Cumulative Glucose Transport (tCGT), active added later with high D-glucose: significant reduction
GLUT2
  inhibition at 25000 µM: 59%
  GLUT2 inhibition (in words): GLUT2 inhibitors
SGLT1
  % Glucose Transport inhibition 5 mM: 76.07%
  Class (assigned class of transporter inhibited): GLUT2 (GLUT2 having >20% inhibition at both 5 mM & 25 mM)

## O=c1c(-c2ccc(O)cc2)coc2cc(O[C@@H]3O[C@H](CO)[C@@H](O)[C@H](O)[C@H]3O)ccc12 [Daidzein-7-glucoside]
GLUT2
  % Glucose Transport inhibition 25 mM: 7.23%
SGLT1
  % Glucose Transport inhibition 5 mM: 35.03%
  SGLT1 inhibitory activity (in words): inhibition of SGLT1
  Class (assigned class of transporter inhibited): SGLT1

## O=c1cc(-c2ccc(O)cc2)oc2cc(OC3O[C@H](CO)[C@@H](O)[C@H](O)[C@H]3O)cc(O)c12 (stereo partly drawn) [Apigenin-7-glucoside]
GLUT2
  % Glucose Transport inhibition 25 mM: 12.81%

## O=C1C[C@@H](c2ccc(O)c(O)c2)Oc2cc(O[C@@H]3O[C@H](CO)[C@@H](O)[C@H](O)[C@H]3O)cc(O)c21 [Eriodictyol-7-O-glucoside]
GLUT2
  % Glucose Transport inhibition 25 mM: 4.98%

## Oc1cc(O)c2cc(O)c(-c3ccc(O)c(O)c3)[o+]c2c1 [Cyanidin]
SGLT1
  % Glucose Transport inhibition 5 mM: 7.93%

## O=C(O)/C=C/c1ccc(O)c(O)c1 [caffeic acid]
GLUT2
  GLUT2 inhibition (in words): no inhibitory activity
SGLT1
  SGLT1 inhibitory activity (in words): no inhibitory activity

## O=c1c(O[C@@H]2O[C@H](CO)[C@@H](O)[C@H](O)[C@H]2O)c(-c2ccc(O)cc2)oc2cc(O)cc(O)c12 [Kaempferol 3-O-glucoside]
[1]; listed as K3G
  Resistance to hydrolysis - % Q4G: 92.8% and 92.78%

## Oc1cc(O)c2cc(O)c(-c3cc(O)c(O)c(O)c3)[o+]c2c1 [Delphinindin]
GLUT2
  % Glucose Transport inhibition 25 mM: 15.86%
SGLT1
  Class (assigned class of transporter inhibited): None

## COc1cc(-c2[o+]c3cc(O)cc(O)c3cc2O[C@@H]2O[C@H](CO)[C@H](O)[C@H](O)[C@H]2O)cc(OC)c1O [Malvidin 3-O-Galactoside]
GLUT2
  % Glucose Transport inhibition 25 mM: 10.41%

## COc1cc(-c2[o+]c3cc(O)cc(O)c3cc2O)cc(OC)c1O [Malvidin]
GLUT2
  inhibition at 25000 µM: 4.99%
SGLT1
  % Glucose Transport inhibition 5 mM: 14.21%

## COc1cc(-c2[o+]c3cc(O)cc(O)c3cc2O[C@@H]2O[C@H](CO)[C@@H](O)[C@H](O)[C@H]2O)cc(OC)c1O [Malvidin-3-O-glucoside]
GLUT2
  % Glucose Transport inhibition 25 mM: 10.91%

## Oc1ccc(-c2[o+]c3cc(O)cc(O)c3cc2O)cc1 [Pelargonidin]
GLUT2
  inhibition at 25000 µM: 16.5%
SGLT1
  % Glucose Transport inhibition 5 mM: 4.07%

## O=c1cc(-c2ccc(O)c(O)c2)oc2cc(O[C@@H]3O[C@H](CO)[C@@H](O)[C@H](O)[C@H]3O)cc(O)c12 [Luteolin-7-glucoside]
[1]
  μM substrate hydrolysed/hr: 0.814 μM substrate hydrolysed/hr
[1]; listed as L7G
  Resistance to hydrolysis - % Q4G: 73.72%
GLUT2
  % Glucose Transport inhibition 25 mM: 17.03%
SGLT1
  % Glucose Transport inhibition 5 mM: 44.09%
  SGLT1 inhibitory activity (in words): inhibition of SGLT1
  Class (assigned class of transporter inhibited): SGLT1

## O=C(/C=C/c1ccc(O)c(O)c1)O[C@@H]1C[C@](O)(C(=O)O)C[C@@H](O)[C@H]1O [chlorogenic acid]
GLUT2
  GLUT2 inhibition (in words): no inhibitory activity
SGLT1
  SGLT1 inhibitory activity (in words): no inhibitory activity

## O=C1CC(c2ccc(O)cc2)Oc2cc(O[C@@H]3O[C@H](CO)[C@@H](O)[C@H](O)[C@H]3O)cc(O)c21 (stereo partly drawn) [Naringenin-7-O-glucoside]
[1]; listed as N7G
  Resistance to hydrolysis - % Q4G: 49.5% and 49.52%
GLUT2
  % Glucose Transport inhibition 25 mM: 0.06%
